{"source": "patent US20110070315A1", "about": "(priority 2009, published 2011)", "origin": "cited, not measured here", "tested_on": "hair loss"}
{"smiles": "Cl.NCCCC[C@H](N)C(=O)O", "note": "[L—Lysine HCl, L-Lysine HCl]", "values": [{"measurement": "decreases hair loss", "result": "one half"}]}
